Drawing on paper PMC13107341, “Quinoline/thiazole compounds as selective acetylcholinesterase inhibitors: synthesis and biological assessment” (RSC Medicinal Chemistry, 2026), this text covers IC50 for ten molecules.

A word on the IC50: it is the concentration that gives 50% inhibition.

One data set has as its target AChE (Homo sapiens, UniProt P22303). In words: Anticholinesterase enzyme activity, modified Ellman method (AChE). Format: biochemical. Here is the method:
Anticholinesterase enzyme activity studies were conducted to evaluate the inhibitory potential of the synthesized compounds (Table 2).
(§1) The anticholinesterase enzyme activities of the compounds were investigated using the modified Ellman method. The details of this method have been presented in detail in our previous studies.[25–27]
Background: In Ellman's method for cholinesterases, released thiocholine reacts with DTNB.

A further data set deals with BChE (Homo sapiens, UniProt P06276). In words: Anticholinesterase enzyme activity, modified Ellman method (BChE). The data set is classed as biochemical. How it is done:
Anticholinesterase enzyme activity studies were conducted to evaluate the inhibitory potential of the synthesized compounds (Table 2). Upon analysis of the results, compounds 3h and 3i stood out due to their notable IC50 values.
as §1

A short description of a further data set: MTT cytotoxicity assay. As to conditions: mouse. How it is done: Both the activity of a compound and its lack of cytotoxicity are criteria that determine whether it can be a potential drug candidate. To this end, the cytotoxic potential of the compounds was investigated on healthy fibroblast cells.
To spectroscopically determine the effects of the synthesized compounds on cell viability, MTT analysis was performed. This method is based on the fact that metabolically active living cells reduce the colorless MTT (3-(4,5-dimethylthiazol-2-yl)-2,5-diphenyltetrazolium) salt, converting it into purple formazan crystals. In the analysis, healthy NIH3T3 cell lines were seeded into 96-well plates at a cell density of […] and incubated with the compounds for 24 hours.[28–33]
In general terms: Tetrazolium dyes change colour on reduction, which living cells bring about.

Sequence of AChE (P22303 32-614): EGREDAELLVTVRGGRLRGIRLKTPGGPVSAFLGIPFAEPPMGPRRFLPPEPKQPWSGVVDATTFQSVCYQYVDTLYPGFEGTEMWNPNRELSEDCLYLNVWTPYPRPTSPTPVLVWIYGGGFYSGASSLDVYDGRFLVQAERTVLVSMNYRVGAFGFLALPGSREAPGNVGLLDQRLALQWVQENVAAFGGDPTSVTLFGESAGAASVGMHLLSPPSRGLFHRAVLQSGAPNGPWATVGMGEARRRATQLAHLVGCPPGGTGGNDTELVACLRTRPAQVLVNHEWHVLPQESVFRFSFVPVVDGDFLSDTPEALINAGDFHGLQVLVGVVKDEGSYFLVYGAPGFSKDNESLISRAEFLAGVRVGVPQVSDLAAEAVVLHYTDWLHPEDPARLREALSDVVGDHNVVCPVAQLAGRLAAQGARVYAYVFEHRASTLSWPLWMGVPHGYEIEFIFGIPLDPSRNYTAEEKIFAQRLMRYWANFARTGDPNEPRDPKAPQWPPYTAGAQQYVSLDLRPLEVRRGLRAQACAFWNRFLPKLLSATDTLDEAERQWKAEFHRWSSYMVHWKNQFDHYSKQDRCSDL
Sequence of BChE (P06276 29-602, species assumed): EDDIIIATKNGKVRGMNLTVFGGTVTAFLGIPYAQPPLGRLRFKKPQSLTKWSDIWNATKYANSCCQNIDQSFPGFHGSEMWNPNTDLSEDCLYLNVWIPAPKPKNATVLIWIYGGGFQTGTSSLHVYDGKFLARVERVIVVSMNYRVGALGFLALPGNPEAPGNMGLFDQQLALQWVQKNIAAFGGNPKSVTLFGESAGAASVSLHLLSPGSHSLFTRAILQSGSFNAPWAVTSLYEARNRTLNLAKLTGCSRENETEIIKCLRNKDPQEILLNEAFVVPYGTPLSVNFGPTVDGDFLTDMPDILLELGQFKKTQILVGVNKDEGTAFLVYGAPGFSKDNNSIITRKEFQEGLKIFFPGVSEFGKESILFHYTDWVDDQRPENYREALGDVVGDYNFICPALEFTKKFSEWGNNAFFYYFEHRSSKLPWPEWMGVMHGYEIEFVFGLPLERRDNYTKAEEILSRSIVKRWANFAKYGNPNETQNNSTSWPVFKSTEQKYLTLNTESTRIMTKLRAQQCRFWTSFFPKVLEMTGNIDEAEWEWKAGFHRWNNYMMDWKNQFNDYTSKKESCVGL

On to `CCn1c(-c2ccccc2)csc1=NN=Cc1ccnc2ccccc12` [3a, 3-Ethyl-4-phenyl-2-((quinolin-4-ylmethylene)hydrazineylidene)-2,3-dihydrothiazole], for which the IC50 against AChE and against BChE was above 10 µM in each case.

With `CCn1c(-c2ccc(C)cc2)csc1=NN=Cc1ccnc2ccccc12` [3b, 3-Ethyl-2-((quinolin-4-ylmethylene)hydrazineylidene)-4-(p-tolyl)-2,3-dihydrothiazole], the half-maximal inhibitory concentration (IC50) at AChE and at BChE was above 10 µM throughout.

As to `CCn1c(-c2ccc(OC)cc2)csc1=NN=Cc1ccnc2ccccc12` [3c, 3-Ethyl-4-(4-methoxyphenyl)-2-((quinolin-4-ylmethylene)hydrazineylidene)-2,3-dihydrothiazole], the IC50 was 3.68 ± 0.109 µM at AChE and above 10 µM against BChE.

On to `CCn1c(-c2ccc([N+](=O)[O-])cc2)csc1=NN=Cc1ccnc2ccccc12` [3d, 3-Ethyl-4-(4-nitrophenyl)-2-((quinolin-4-ylmethylene)hydrazineylidene)-2,3-dihydrothiazole], for which the IC50 on AChE and against BChE was above 10 µM throughout.

Take `CCn1c(-c2ccc(F)cc2)csc1=NN=Cc1ccnc2ccccc12` [3e, 3-Ethyl-4-(4-fluorophenyl)-2-((quinolin-4-ylmethylene)hydrazineylidene)-2,3-dihydrothiazole]: the IC50 was 1.87 ± 0.678 µM against AChE and above 10 µM on BChE.

Take `CCn1c(-c2ccc(Cl)cc2)csc1=NN=Cc1ccnc2ccccc12` [3f, 4-(4-Chlorophenyl)-3-ethyl-2-((quinolin-4-ylmethylene)hydrazineylidene)-2,3-dihydrothiazole]: the IC50 against AChE was 4.75 ± 0.098 µM; at BChE it was above 10 µM.

Turning to `CCn1c(-c2ccc(C#N)cc2)csc1=NN=Cc1ccnc2ccccc12` [3g, 4-(3-Ethyl-2-((quinolin-4-ylmethylene)hydrazineylidene)-2,3-dihydrothiazol-4-yl)benzonitrile], the IC50 against AChE was 9.96 ± 0.208 µM; against BChE it was above 10 µM.

For `CCn1c(-c2ccc(Cl)c(Cl)c2)csc1=NN=Cc1ccnc2ccccc12` [3h, 4-(3,4-Dichlorophenyl)-3-ethyl-2-((quinolin-4-ylmethylene)hydrazineylidene)-2,3-dihydrothiazole], the IC50 was 0.107 ± 0.07 µM at AChE and above 10 µM against BChE. This molecule also had an IC50 at 24 h in “MTT cytotoxicity assay” of 36.1 ± 0.968 µM.

Take `CCn1c(-c2ccc(O)c(O)c2)csc1=NN=Cc1ccnc2ccccc12` [3i, 4-(3-Ethyl-2-((quinolin-4-ylmethylene)hydrazineylidene)-2,3-dihydrothiazol-4-yl)benzene-1,2-diol]: the IC50 against AChE was 0.027 ± 0.002 µM; at BChE, above 10 µM. In “MTT cytotoxicity assay”, this molecule registered an IC50 at 24 h of 19.8 ± 0.627 µM.

On to `COc1cccc2c1C(=O)c1c(O)c3c(c(O)c1C2=O)C[C@@](O)(C(=O)CO)C[C@@H]3O[C@H]1C[C@H](N)[C@H](O)[C@H](C)O1` [Doxorubicin, reference compound], for which the IC50 at 24 h in the data set “MTT cytotoxicity assay” is above 1000 µM.
